From patent publication US10123993B2, “Cyclic ureas as inhibitors of rock” (BRISTOL-MYERS SQUIBB COMPANY, priority 2015, dated 2018) come the findings set out here.

The structures appear in SMILES notation. Counter-ions that a name gives are not always drawn.

ROCK2, sequence (O75116 whole entry, species assumed): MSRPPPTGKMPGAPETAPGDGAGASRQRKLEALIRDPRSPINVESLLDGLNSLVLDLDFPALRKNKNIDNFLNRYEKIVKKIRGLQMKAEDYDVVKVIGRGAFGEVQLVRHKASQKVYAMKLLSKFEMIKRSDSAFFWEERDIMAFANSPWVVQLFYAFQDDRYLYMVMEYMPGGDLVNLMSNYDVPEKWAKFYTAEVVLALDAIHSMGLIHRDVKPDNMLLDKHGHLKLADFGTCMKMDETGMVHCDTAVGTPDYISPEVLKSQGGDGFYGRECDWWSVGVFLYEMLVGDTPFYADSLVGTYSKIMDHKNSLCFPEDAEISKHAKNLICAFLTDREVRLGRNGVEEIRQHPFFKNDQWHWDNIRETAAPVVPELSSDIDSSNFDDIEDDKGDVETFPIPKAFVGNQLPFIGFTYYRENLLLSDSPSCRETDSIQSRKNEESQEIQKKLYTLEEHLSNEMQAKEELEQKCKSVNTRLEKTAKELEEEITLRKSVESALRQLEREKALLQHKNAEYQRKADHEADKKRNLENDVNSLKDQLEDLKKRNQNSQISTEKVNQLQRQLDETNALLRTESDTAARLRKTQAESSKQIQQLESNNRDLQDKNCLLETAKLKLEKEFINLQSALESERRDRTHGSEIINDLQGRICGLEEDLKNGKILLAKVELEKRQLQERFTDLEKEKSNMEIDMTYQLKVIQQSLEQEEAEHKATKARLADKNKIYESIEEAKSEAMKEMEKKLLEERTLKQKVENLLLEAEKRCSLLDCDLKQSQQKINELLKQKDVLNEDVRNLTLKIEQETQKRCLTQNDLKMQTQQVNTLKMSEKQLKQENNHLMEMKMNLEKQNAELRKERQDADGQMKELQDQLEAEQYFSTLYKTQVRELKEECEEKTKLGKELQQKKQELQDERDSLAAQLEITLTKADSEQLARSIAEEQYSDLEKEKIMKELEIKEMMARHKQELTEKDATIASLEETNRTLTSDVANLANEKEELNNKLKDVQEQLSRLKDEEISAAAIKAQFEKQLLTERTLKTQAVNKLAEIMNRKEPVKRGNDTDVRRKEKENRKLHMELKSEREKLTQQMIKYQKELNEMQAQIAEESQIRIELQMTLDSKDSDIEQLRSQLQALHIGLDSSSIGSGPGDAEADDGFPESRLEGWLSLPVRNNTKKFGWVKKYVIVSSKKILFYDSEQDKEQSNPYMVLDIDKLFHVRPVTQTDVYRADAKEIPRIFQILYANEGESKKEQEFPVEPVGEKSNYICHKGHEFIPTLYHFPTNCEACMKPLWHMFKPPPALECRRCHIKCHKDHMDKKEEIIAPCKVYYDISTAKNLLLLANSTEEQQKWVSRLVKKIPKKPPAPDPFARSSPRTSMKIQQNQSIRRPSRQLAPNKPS

The assay concerns the target ROCK2 (Homo sapiens, UniProt O75116). Kind of assay: ROCK2 kinase inhibition assay (Caliper LABCHIP, FITC peptide substrate). The class given is biochemical. The following applies: 5 μM ATP, 1.5 μM peptide substrate; value ranges. The method, boiled down: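 Dose-response curves gave IC50 from inhibition of peptide phosphorylation, measured by LabChip separation after EDTA stop. Reactions used 1.5 μM FITC-labelled peptide, 5 μM ATP, 20 mM HEPES pH 7.5 with MgCl2, Brij-35, DTT, and under 2% DMSO.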
Broadly, the IC50 is the concentration that inhibits the measured activity by half. Low values mean greater potency, high ones weaker potency. Compound `CNC(=O)C(c1ccccc1)N1CCN(c2ccc(-c3cn[nH]c3)cc2)C1=O` (single isomer, unassigned) [Example 299, 2-(3-(4-(1H-pyrazol-4-yl)phenyl)-2-oxoimidazolidin-1-yl)-N-methyl-2-phenylacetamide] returned an IC50 of 20.1 to 200 nM.

`COc1cc(-c2cn[nH]c2)ccc1N1CCN(Cc2cccc(F)c2)C1=O` [Example 9, 1-(3-Fluorobenzyl)-3-(2-methoxy-4-(1H-pyrazol-4-yl)phenyl)imidazolidin-2-one] displayed an IC50 of 20.1 to 200 nM.

Regarding `COc1nc(N2CCN(Cc3ccc(F)cc3C)C2=O)ccc1-c1cn[nH]c1` [Example 249, 1-(4-fluoro-2-methylbenzyl)-3-(6-methoxy-5-(1H-pyrazol-4-yl)pyridin-2-yl)imidazolidin-2-one], the IC50 was in the range of 20.1 to 200 nM.

Turning to `CCc1cc(N2CCN(Cc3cccc(OC)c3)C2=O)ccc1-c1cn[nH]c1` [Example 23, 1-(3-Ethyl-4-(1H-pyrazol-4-yl)phenyl)-3-(3-methoxybenzyl)imidazolidin-2-one], the IC50 was in the range of 2.1 to 20 nM.

In the case of `COc1cc(C(C)N2CCN(c3ccc(-c4cn[nH]c4)c(C)n3)C2=O)ccc1F` (single isomer, unassigned) [Example 209, 1-(1-(4-fluoro-3-methoxyphenyl)ethyl)-3-(6-methyl-5-(1H-pyrazol-4-yl)pyridin-2-yl)imidazolidin-2-one], the IC50 lay in the range of 2.1 to 20 nM.

Regarding `COc1cccc(CN2CC(=O)N(c3ccc(-c4cn[nH]c4)c(OC)c3)C2=O)c1` [Example 93, 3-(3-methoxy-4-(1H-pyrazol-4-yl)phenyl)-1-(3-methoxybenzyl)imidazolidine-2,4-dione, TFA], the IC50 is 20.1 to 200 nM.

Compound `COc1cc(F)ccc1Cn1ccn(-c2ccc(-c3cn[nH]c3)cc2)c1=O` [Example 412, 1-(4-(1H-pyrazol-4-yl)phenyl)-3-(4-fluoro-2-methoxybenzyl)-1H-imidazol-2(3H)-one] returned an IC50 of 200 to 2000 nM.

`COc1cccc(C(C(=O)NC2CC2)N2CCN(c3ccc(-c4cn[nH]c4)cc3)C2=O)c1` (single isomer, unassigned) [Example 301, 2-(3-(4-(1H-pyrazol-4-yl)phenyl)-2-oxoimidazolidin-1-yl)-N-cyclopropyl-2-(3-methoxyphenyl)acetamide] registered an IC50 of 2.1 to 20 nM.

Compound `COc1nc(N2CCN(Cc3cccc(F)c3F)C2=O)ccc1-c1cn[nH]c1` [Example 223, 1-(2,3-difluorobenzyl)-3-(6-methoxy-5-(1H-pyrazol-4-yl)pyridin-2-yl)imidazolidin-2-one] came in with an IC50 of 2.1 to 20 nM.

Regarding `COc1cccc([C@@H](C)N2CCN(c3ccc(-c4cn[nH]c4)cc3)C2=O)c1` [Example 122, (R)-1-(4-(1H-Pyrazol-4-yl)phenyl)-3-(1-(3-methoxyphenyl)ethyl)imidazolidin-2-one], the IC50 is below 2 nM.

With `COc1cc(CN2C(=O)N(c3ccc(-c4cn[nH]c4)cn3)C[C@H]2CO)ccc1F` [Example 311, (S)-1-(5-(1H-Pyrazol-4-yl)pyridin-2-yl)-3-(4-fluoro-3-methoxybenzyl)-4-(hydroxymethyl)imidazolidin-2-one], the IC50 lay in the range of 20.1 to 200 nM.

In the case of `COc1cc(F)cc(CN2CCN(c3ccc(-c4cn[nH]c4)nc3)C2=O)c1` [Example 437, 1-(6-(1H-pyrazol-4-yl)pyridin-3-yl)-3-(3-fluoro-5-methoxybenzyl)imidazolidin-2-one], the IC50 is 20.1 to 200 nM.

`O=C1N(Cc2ccccc2)CCN1c1ccc(-c2ccncc2)cc1` [Example 55, 1-benzyl-3-(4-(pyridin-4-yl)phenyl)imidazolidin-2-one, TFA] gave an IC50 of 20.1 to 200 nM.

Regarding `O=C1N(Cc2ccccc2)CCN1c1ccc(-c2cn[nH]c2)cc1` [Example 3, 1-(4-(1H-pyrazol-4-yl)phenyl)-3-benzylimidazolidin-2-one], the IC50 was in the range of 2.1 to 20 nM.

In the case of `COc1cc(N2CC(=O)N(Cc3ccccc3F)C2=O)ccc1-c1cn[nH]c1` [Example 99, 3-(2-fluorobenzyl)-1-(3-methoxy-4-(1H-pyrazol-4-yl)phenyl)imidazolidine-2,4-dione], the IC50 is 20.1 to 200 nM.

On to `Cc1nc(N2CCN(Cc3ccc(F)c(OCC4CC4)c3)C2=O)ccc1-c1cn[nH]c1` [Example 210, 1-(3-(cyclopropylmethoxy)-4-fluorobenzyl)-3-(6-methyl-5-(1H-pyrazol-4-yl)pyridin-2-yl)imidazolidin-2-one], for which the IC50 lay in the range of 20.1 to 200 nM.

On to `CCc1cc(-n2ccn(Cc3cccc(OCC4CC4)c3)c2=O)ccc1-c1cn[nH]c1` [Example 455, 1-(3-(cyclopropylmethoxy)benzyl)-3-(3-ethyl-4-(1H-pyrazol-4-yl)phenyl)-1H-imidazol-2(3H)-one], for which the IC50 was 200 to 2000 nM.

`O=c1n(Cc2c(F)cccc2F)ccn1-c1ccc(-c2cn[nH]c2)cc1` [Example 68, 1-(4-(1H-pyrazol-4-yl)phenyl)-3-(2,6-difluorobenzyl)-1H-imidazol-2(3H)-one]: the IC50 was 20.1 to 200 nM.

The compound `CCc1nc(-n2ccn(C(C)c3cccc(OCC4CC4)c3)c2=O)ccc1-c1cn[nH]c1` (single isomer, unassigned) [Example 372, 1-(1-(3-(cyclopropylmethoxy)phenyl)ethyl)-3-(6-ethyl-5-(1H-pyrazol-4-yl)pyridin-2-yl)-1H-imidazol-2(3H)-one] came in with an IC50 of 20.1 to 200 nM.

Turning to `COc1nc(N2CCN(Cc3cc(F)ccc3F)C2=O)ccc1-c1cn[nH]c1` [Example 246, 1-(2,5-difluorobenzyl)-3-(6-methoxy-5-(1H-pyrazol-4-yl)pyridin-2-yl)imidazolidin-2-one], the IC50 was 2.1 to 20 nM.

As for `COc1cccc(C(C)N2CCN(c3ccc(-c4cn[nH]c4)c(OC)n3)C2=O)c1` (single isomer, unassigned) [Example 219, 1-(6-methoxy-5-(1H-pyrazol-4-yl)pyridin-2-yl)-3-(1-(3-methoxyphenyl)ethyl)imidazolidin-2-one], the IC50 was below 2 nM.

`O=C1N(Cc2ccc(Cl)c(Cl)c2)CCN1c1ccc(-c2cn[nH]c2)cn1` [Example 241, 1-(5-(1H-pyrazol-4-yl)pyridin-2-yl)-3-(3,4-dichlorobenzyl)imidazolidin-2-one] showed an IC50 of 200 to 2000 nM.

With `O=C1N(Cc2cccc(F)c2)CCN1c1ccc(-c2cnoc2)cc1` [Example 61, 1-(3-fluorobenzyl)-3-(4-(isoxazol-4-yl)phenyl)imidazolidin-2-one], the IC50 fell in the range of 200 to 2000 nM.

The compound `O=C1N(CCc2ccccc2)CCN1c1ccc(-c2cn[nH]c2)cc1` [Example 1, 1-(4-(1H-Pyrazol-4-yl)phenyl)-3-phenethylimidazolidin-2-one] had an IC50 of 2.1 to 20 nM.

`COc1cc(CN2C(=O)N(c3ccc(-c4cn[nH]c4)cc3)C[C@@H]2CO)ccc1F` (single isomer, unassigned) [Example 130]: the IC50 fell in the range of 2.1 to 20 nM.

Compound `COc1cccc(C(C)n2ccn(-c3ccc(-c4cn[nH]c4)c(OC)n3)c2=O)c1` (single isomer, unassigned) [Example 401, 1-(6-methoxy-5-(1H-pyrazol-4-yl)pyridin-2-yl)-3-(1-(3-methoxyphenyl)ethyl)-1H-imidazol-2(3H)-one] yielded an IC50 of 2.1 to 20 nM.

In turn, `COc1cc(F)cc(CN2CCN(c3ccc(-c4cn[nH]c4)c(C#N)c3)C2=O)c1` [Example 278, 5-(3-(3-fluoro-5-methoxybenzyl)-2-oxoimidazolidin-1-yl)-2-(1H-pyrazol-4-yl)benzonitrile] returned an IC50 of 20.1 to 200 nM.

The compound `CCc1cc(N2CCN(Cc3cc(F)cc(OC)c3)C2=O)ccc1-c1cn[nH]c1` [Example 280, 1-(3-ethyl-4-(1H-pyrazol-4-yl)phenyl)-3-(3-fluoro-5-methoxybenzyl)imidazolidin-2-one] gave an IC50 of 2.1 to 20 nM.

The compound `COc1cccc(C(C)N2C(=O)N(c3ccc(-c4cn[nH]c4)cc3)C[C@@H]2CO)c1` (single isomer, unassigned) [Example 132] gave an IC50 of 2.1 to 20 nM.

With `COc1cc(F)cc(CN2CCN(c3cc(F)c(-c4cn[nH]c4)cc3F)C2=O)c1` [Example 448, 1-(2,5-difluoro-4-(1H-pyrazol-4-yl)phenyl)-3-(3-fluoro-5-methoxybenzyl)imidazolidin-2-one], the half-maximal inhibitory concentration (IC50) fell in the range of 20.1 to 200 nM.

The compound `COc1cccc(C(C)n2ccn(-c3ccc(-c4cn[nH]c4)c(OC)n3)c2=O)c1` (single isomer, unassigned) [Example 400, 1-(6-methoxy-5-(1H-pyrazol-4-yl)pyridin-2-yl)-3-(1-(3-methoxyphenyl)ethyl)-1H-imidazol-2(3H)-one] had an IC50 below 2 nM.

Regarding `COc1nc(N2CCN(Cc3cccc(OCC4CC4)c3)C2=O)ccc1-c1cn[nH]c1` [Example 475, 1-(3-(cyclopropylmethoxy)benzyl)-3-(6-methoxy-5-(1H-pyrazol-4-yl)pyridin-2-yl)imidazolidin-2-one], the IC50 was below 2 nM.

For `CCc1cc(N2CC(C)(C)N(Cc3cc(F)cc(OC)c3)C2=O)ccc1-c1cn[nH]c1` [Example 147, 1-(3-ethyl-4-(1H-pyrazol-4-yl)-phenyl)-3-(3-fluoro-5-methoxy-benzyl)-4,4-dimethyl-imidazolidin-2-one], the IC50 lay within 2.1 to 20 nM.

In turn, `CCOc1cccc(C(C)n2ccn(-c3ccc(-c4cn[nH]c4)cc3)c2=O)c1` (single isomer, unassigned) [Example 369, 1-(4-(1H-pyrazol-4-yl)phenyl)-3-(1-(3-ethoxyphenyl)ethyl)-1H-imidazol-2(3H)-one] returned an IC50 of 2.1 to 20 nM.

`COc1cccc(CN2CCN(c3ccc(-c4ccnc(N)c4)cc3)C2=O)c1` [Example 62, 1-(4-(2-Aminopyridin-4-yl)phenyl)-3-(3-methoxybenzyl)imidazolidin-2-one, TFA] gave a half-maximal inhibitory concentration (IC50) of 20.1 to 200 nM.

Take `COc1cccc(Cn2ccn(-c3ccc(-c4ccnc5[nH]ccc45)cc3)c2=O)c1` [Example 322, 1-(4-(1H-pyrrolo[2,3-b]pyridin-4-yl)phenyl)-3-(3-methoxybenzyl)-1H-imidazol-2(3H)-one]: the IC50 lay in the range of 2.1 to 20 nM.

Compound `COc1cc(F)cc(CN2C(=O)N(c3ccc(-c4cn[nH]c4)c(C)n3)CC2(C)C)c1` [Example 151, 3-(3-fluoro-5-methoxy-benzyl)-4,4-dimethyl-1-(6-methyl-5-(1H-pyrazol-4-yl)pyridin-2-yl)-imidazolidin-2-one] returned a half-inhibitory concentration (IC50) of 2.1 to 20 nM.
